Data published in paper PMC11091243, “PD-L1 targeted peptide demonstrates potent antitumor and immunomodulatory activity in cancer immunotherapy” (Frontiers in Immunology, 2024).

Columns and labels:
human PD-L1 (hPD-L1) = human PD-L1 (hPD-L1) (Homo sapiens, UniProt Q9NZQ7); experiment: Fluorescence-based ELISA, binding specificity; settings: 20 μmol/L FITC-labeled peptide, 1.5 h room temperature, n = 3
Method: (§1) Fluorescence-based ELISA and cell-based tests were used to examine the binding specificity of PPL-C to PD-L1. To perform the ELISA, fluorescent plates were coated with 100 μL human PD-L1 (hPD-L1), mouse PD-L1 (mPD-L1), and BSA in PBS (pH 7.4) overnight at 4°C, respectively. Blocked the plates with 1% BSA (in PBST) for an hour at room temperature and rinsed twice with PBST. Then added peptides (20 μmol/L FITC-labeled PPL-C/Control peptide) and incubated for 1.5 hours at room temperature. With excitation at 488 nm and emission at 515 nm, the Cytation 3 instrument (BioTek) was used to measure the relative fluorescence intensity. Both attached and detached cells were used in the cell-based flow cytometry analysis. […] After that, cells were treated for 40 minutes at 4°C on an inversion shaker with PD-L1 antibody from Biolegend and 4 μmol/L FITC-labeled peptides (PPL-C/Control peptide). Each tube was washed twice with PBS following incubation and flow cytometry was carried out using a FACSort device. FlowJo software was used to evaluate the data that was acquired.

mouse PD-L1 (mPD-L1) = mouse PD-L1 (mPD-L1) (Mus musculus, UniProt Q9EP73); experiment: Fluorescence-based ELISA, binding specificity; settings: 20 μmol/L FITC-labeled peptide, 1.5 h room temperature, n = 3
Sequence of mouse PD-L1 (mPD-L1) (Q9EP73 19-290): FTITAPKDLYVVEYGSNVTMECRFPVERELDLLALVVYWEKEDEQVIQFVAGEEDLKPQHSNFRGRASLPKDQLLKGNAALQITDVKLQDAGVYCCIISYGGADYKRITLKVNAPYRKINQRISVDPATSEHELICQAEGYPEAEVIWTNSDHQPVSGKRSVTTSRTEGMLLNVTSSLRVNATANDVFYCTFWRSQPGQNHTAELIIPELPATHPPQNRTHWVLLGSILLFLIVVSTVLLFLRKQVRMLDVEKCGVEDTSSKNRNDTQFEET
Method: as §1

[1] = tested on: serum cytokines of CT26-bearing mice; experiment: Cytokine ELISA of serum of treated CT26-bearing mice; assay type: in vivo, mouse; settings: 14 days of administration, versus untreated and control peptide groups
Method: After 14 days of continuous administration, 0.5-1.0 ml of peripheral blood was collected from the mice. Serum was isolated from peripheral blood using the posterior orbital venous plexus blood collection method. The serum was obtained by centrifuging at 2000 RMP for 10 minutes. Mouse total lymphocytes were isolated from the spleen using Ficoll density gradient fractionation (Shanghai Biotech Bioengineering). In 200 μL of RIPM medium with 10% FBS, 1×10^6 tumor cells were seeded in each well with a CT26: lymphocyte ratio of 1:2 and incubated for 48 and 72 hours. Cell growth medium was harvested by centrifuging at 2000 RPM for 10 min. For the analysis of cytokine production, lymphocyte growth media served as a positive control and cell-free growth medium served as a negative control. Following the manufacturer’s instructions, the levels of IL-2, IL-4, IL-6, IL-10, TNF-α and IFN-γ in the blood and cell growth media were assessed using LEGEND MAX™ ELISA kit (BioLegend Inc, USA). Three duplicates of each experiment were carried out.

LLC cells = experiment: Flow cytometry binding to LLC cells; assay type: cell-based, mouse; settings: higher PD-L1 expression than MC38
Method: as §1

CD4+ T cells in MLR = experiment: Mixed lymphocyte reaction (DCs, CT26 tumor cells, CD4+ T cells); assay type: cell-based, mouse; settings: 20 μmol/L, versus control and control peptides, day 3, n = 3
Method: Fresh PBMCs were cultured in IMDM at 37°C for 2 hours and washed twice in PBS. Then cells were cultured in IMDM supplemented with 10% FBS, 25 ng/mL GM-CSF, and 50 ng/mL IL-4. Fresh medium was added every three days. TNF-α (50 ng/mL) was added on the sixth day to stimulate the maturation of dendritic cells (DCs) for 24 hours. The mature DCs were then frozen to be harvested later. Solid tumor tissues from the CT26 tumor-bearing animal have been removed and fragmented to collect tumor cells. In RPMI 1640 medium supplemented with 10% FBS, 2 mM L-glutamine, […] streptomycin, and 200 U/mL penicillin, these fragments were subjected to digestion with a combination of triple enzymes (collagenase, DNase, and hyaluronidase) for a maximum of 2 hours. The resultant cell suspension was then grown in complete RPMI 1640 medium at 37°C with 5% CO2 for 24 hours. The goal of this culture phase was to re-establish PD-L1 expression on the tumor cell surface since collagenase digestion may have destroyed it. DCs and tumor cells were both given a 2-hour treatment with mitomycin C (MMC) at a dosage of 100 μg/mL before the start of mixed lymphocyte responses (MLR). After thawing, the CD4+ T cells were cultured for overnight. […] Cell growth and IFN-γ levels in culture supernatants were measured on day 3.

Swiss mice = assay type: in vivo, mouse; settings: twice intraperitoneal 180 mg/kg (30 times effective amount), observed 14 days, data not shown
MDA-MB-231 cells = experiment: Flow cytometry binding to MDA-MB-231 cells; assay type: cell-based, human; settings: higher PD-L1 expression than MC38
Method: as §1

Sequence of human PD-L1 (hPD-L1) (Q9NZQ7 19-290): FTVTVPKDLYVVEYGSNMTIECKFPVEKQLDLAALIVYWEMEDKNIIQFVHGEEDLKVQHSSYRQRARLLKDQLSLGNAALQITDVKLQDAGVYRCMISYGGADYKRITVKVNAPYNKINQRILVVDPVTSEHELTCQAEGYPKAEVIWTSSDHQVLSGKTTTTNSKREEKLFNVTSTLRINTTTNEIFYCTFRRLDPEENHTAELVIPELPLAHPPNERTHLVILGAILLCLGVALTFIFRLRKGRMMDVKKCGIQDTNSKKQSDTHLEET

`CC(C)[C@H](NC(=O)[C@H](CO)NC(=O)[C@@H](NC(=O)[C@@H](N)CO)C(C)C)C(=O)N[C@@H](CO)C(=O)N[C@@H](Cc1c[nH]cn1)C(=O)N[C@@H](Cc1ccccc1)C(=O)N[C@@H](CCC(N)=O)C(=O)N[C@@H](CCCCN)C(=O)N[C@H](C(=O)N[C@@H](Cc1c[nH]c2ccccc12)C(=O)N[C@H](C(=O)N[C@H](C(=O)NCC(=O)NCC(=O)NCC(=O)N[C@@H](CO)C(=O)N[C@@H](CCCCN)C(N)=O)C(C)C)C(C)C)C(C)C` [PPL-C] was tested, and the “Binding to hPD-L1” value (human PD-L1 (hPD-L1)) was “cross-reactivity”, the “Binding to mPD-L1” value (mouse PD-L1 (mPD-L1)) was “higher specificity” and the “IFN-γ, IL-2, IL-4 and IL-6 secretion in serum” value [1] was “significantly promoted”. For the same compound, the “IL-10 secretion in serum” value [1] was “lower IL-10 secretion”, the “Affinity to LLC cells” value (LLC cells) was “higher affinity” and the “IFN-γ release in MLR” value (CD4+ T cells in MLR) was “significantly higher release”. The Acute toxicity (Swiss mice) was “no acute toxicity” and the “Affinity to MDA-MB-231 cells” value (MDA-MB-231 cells) was “higher affinity”.
